Reference: article PMC12473897 (Toxics, 2025)

Tested on: T1, Coptodon zillii liver rhodanese
T1 construct: gene tst
Conditions: co-substrate KCN; standard assay borate pH 9.4, 37 °C; 5-50 mM range

SMILES: O=S(O)(O)=S [sodium thiosulphate]
- Km: 20 mM
